Target: T1, β3 adrenergic receptor (β3AR-cc3.1 chimera) (Homo sapiens, UniProt P13945, E36A/M86V/I125V/E126W/Y224A/F341M/Y346L)
T1 construct: gene ADRB3; Ala2 to Leu368 lacking Pro3 to Thr27, with Thermus thermophilus SRS antiparallel coiled coil cc3.1 inserted between Ala231 and Glu286 (replacing ICL3); N-terminal FLAG and C-terminal TwinStrep tags
Assay: radioligand saturation binding (SPA) on membranes of HEK-293S-GnTI- cells expressing β3AR-cc3.[…]

T1 sequence (P13945 2-368 E36A/M86V/I125V/E126W/Y224A/F341M/Y346L): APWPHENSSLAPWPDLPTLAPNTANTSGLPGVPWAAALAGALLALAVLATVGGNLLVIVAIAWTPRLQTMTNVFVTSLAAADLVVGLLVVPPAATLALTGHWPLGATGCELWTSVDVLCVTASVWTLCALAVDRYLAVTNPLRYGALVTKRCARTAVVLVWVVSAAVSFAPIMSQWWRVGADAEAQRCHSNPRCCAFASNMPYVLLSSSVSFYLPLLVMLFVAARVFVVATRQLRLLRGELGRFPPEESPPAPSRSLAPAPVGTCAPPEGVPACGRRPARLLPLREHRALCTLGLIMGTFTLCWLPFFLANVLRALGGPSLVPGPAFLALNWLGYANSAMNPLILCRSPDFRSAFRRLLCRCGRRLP

CCCc1ccccc1OC[C@@H](O)CNC(C)C [[3H]-dihydroalprenolol]
Kd: 150 nM

Source: article PMC10287670, “A coiled-coil-based design strategy for the thermostabilization of G-protein-coupled receptors” (Scientific Reports, 2023)
